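Cultured in 96-well plates, cells were exposed to test compound for 48 hours across five concentrations. The concentration for full growth arrest is given as TGI.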
What was measured:
Assay in all cases: inhibition of tumour cell growth, NCI panel, 48 h
PC-3 prostate = tested on: PC-3 prostate
SK-MEL-2 melanoma = tested on: SK-MEL-2 melanoma
U251 CNS = tested on: U251 CNS
SK-MEL-5 melanoma = tested on: SK-MEL-5 melanoma
UACC-62 melanoma = tested on: UACC-62 melanoma
NCI-H226 lung = tested on: NCI-H226 lung
SK-OV-3 ovarian = tested on: SK-OV-3 ovarian
DU-145 prostate = tested on: DU-145 prostate
K-562 leukemia = tested on: K-562 leukemia
UACC-257 melanoma = tested on: UACC-257 melanoma
SF-268 CNS = tested on: SF-268 CNS

| SMILES | TGI (PC-3 prostate) [µM] | TGI (SK-MEL-2 melanoma) [µM] | TGI (U251 CNS) [µM] | TGI (SK-MEL-5 melanoma) [µM] | TGI (UACC-62 melanoma) [µM] | TGI (NCI-H226 lung) [µM] | TGI (SK-OV-3 ovarian) [µM] | TGI (DU-145 prostate) [µM] | TGI (K-562 leukemia) [µM] | TGI (UACC-257 melanoma) [µM] | TGI (SF-268 CNS) [µM] |
| --- | --- | --- | --- | --- | --- | --- | --- | --- | --- | --- | --- |
| COc1cc2c(cc1C)NC(=O)/C2=C/c1c(Cl)[nH]c2cc(C)c(OC)cc12 | 21.7 | 22.1 | 15.3 | 10.6 | 19.5 | 50.6 | 5.56 | 14.8 | > 41.6 | 23.7 | 18.7 |
| OC(c1cc(C(O)(C(F)(F)F)C(F)(F)F)ncn1)(C(F)(F)F)C(F)(F)F | > 10 | > 10 | > 10 | > 10 | > 10 | > 10 | > 10 | > 10 | > 10 | > 10 | > 10 |
| NS(=O)(=O)c1ccc(NNC(=O)c2cccc3c(=O)c4ccccc4[nH]c23)cc1 | > 100 | > 100 | > 100 | > 100 | > 100 | > 100 | > 100 | > 100 | > 100 | > 100 | > 100 |
| Nn1c(CNc2ccc(-c3nnc(Nc4ccc(Cl)cc4)n3N)cc2)nnc1Nc1ccc(Cl)cc1 | > 100 | > 100 | > 100 | > 100 | > 100 | > 100 | > 100 | > 100 | > 100 | > 100 | > 100 |
| C/C(Cl)=N\OC(=O)Nc1ccc([N+](=O)[O-])cc1 | 29.9 | 32.5 | 33.8 | 31.2 | 48.6 | > 100 | > 32.6 | 31.8 | 4.22 | 30.9 | 41.8 |
| Cc1c2c(c(C)c3c[n+](C)ccc13)Oc1ccccc1O2 | > 76.7 | 41.2 | 22.3 | 42.5 | 27.4 | > 43.8 | > 84.5 | > 100 | 35.4 | 25.9 | 11.8 |
| CCCCC1Cc2cc(O)ccc2-c2n1c1cc(O)ccc1[n+]2C (configuration not stated) (tested in a mixture with another compound) | > 100 | > 100 | > 62.3 | 22 | > 81.5 | > 100 | > 100 | > 100 | > 100 | 80 | > 59.5 |
| CCOC(=O)c1ccc(N=C2SC(=S)N(c3ccc(F)cc3)C2=Nc2ccc(C(=O)OCC)cc2)cc1 | 40.6 | 35 | 44.2 | 25.1 | 21.5 | 43.1 | > 100 | > 100 | 47.3 | 37.4 | > 37.6 |
| C=CCN1CCC(OC(=O)C(O)(/C=C\CC)C2CCCC2)CC1 (configuration not stated) | > 100 | > 100 | > 100 | > 100 | > 100 | > 100 | > 100 | > 100 | > 100 | > 100 | > 100 |
| CCN(CC)CC(O)c1ccc2ccc3ccccc3c2c1 (configuration not stated) | 30.1 | 30.9 | 26 | 27.3 | 29.1 | 29.5 | 29.5 | 33 | 32.5 | 31.5 | 34.7 |
| CCN(CC)CCn1ncc2ccc3c(c(=O)c4cccnc4n3CCN(CC)CC)c21 | 3.85 | 3.51 | 6.82 | 2.38 | 5.15 | 5.44 | > 9.46 | > 8.66 | 3.33 | 3.95 | 4.66 |
| O=C(CSc1nc2ccc(I)cc2c(=O)n1Cc1ccccc1)N/N=C/c1ccccc1 | 28.6 | 35.6 | 33.3 | > 100 | > 100 | 95.9 | 31.6 | > 100 | > 100 | > 100 | 32.4 |
| Cc1ccnc(NS(=O)(=O)c2ccc(NC(=O)c3ccc4nc5ccccc5c(Nc5ccc(S(=O)(=O)Nc6nccc(C)n6)cc5)c4c3)cc2)n1 | > 100 | 39.5 | 41.7 | > 100 | > 100 | > 100 | > 100 | > 100 | > 100 | > 100 | > 100 |
| COc1cc(Cn2c3c(c4c(CN(C)C)c(O)ccc42)C(=O)c2ccccc2C3=O)cc(OC)c1 | 35.4 | 29.8 | 36.8 | 26 | 51.9 | > 100 | 48.3 | > 100 | 36.8 | 55.7 | 27.9 |
| C=C1c2nc3ccccc3n2C=C(c2ccc(Cl)cc2)N1c1ccc(OCCN2CCOCC2)cc1 | > 100 | 29.1 | > 100 | 71.5 | 99.6 | > 100 | > 100 | > 100 | > 100 | 90.3 | > 100 |
| O=C(O)CC(NC(=O)C(F)(F)F)C(=O)NC1Cc2ccccc2OC1=O (configuration not stated) | > 100 | > 100 | > 100 | > 100 | > 100 | > 100 | > 100 | > 100 | > 100 | > 100 | > 100 |

| SMILES | TGI (PC-3 prostate) [µM] | TGI (SK-MEL-2 melanoma) [µM] | TGI (U251 CNS) [µM] | TGI (SK-MEL-5 melanoma) [µM] | TGI (UACC-62 melanoma) [µM] | TGI (NCI-H226 lung) [µM] | TGI (SK-OV-3 ovarian) [µM] | TGI (DU-145 prostate) [µM] | TGI (K-562 leukemia) [µM] | TGI (UACC-257 melanoma) [µM] | TGI (SF-268 CNS) [µM] |
| --- | --- | --- | --- | --- | --- | --- | --- | --- | --- | --- | --- |
| COC(=O)C12CCC(C(=O)OC)(Cc3c(c4ccccc4n3S(=O)(=O)c3ccccc3)C1)C2=O (configuration not stated) | > 100 | > 100 | > 100 | > 100 | > 100 | > 100 | > 100 | > 100 | > 100 | > 100 | > 100 |
| COC(=O)N1CC[C@@H]2CCC=C(c3cccc4c3OCO4)[C@@H]21 | > 100 | > 100 | > 100 | > 100 | > 100 | > 100 | > 100 | > 100 | > 100 | > 100 | > 100 |
| Oc1c(C(O)(c2ccccc2)c2ccc3ccccc3c2O)ccc2ccccc12 | 20.7 | 26.4 | 21.8 | 18 | 22.8 | 36.5 | 38.3 | 34.6 | 15.7 | 23.4 | 28.4 |
| CCOC(=O)/C(C(=S)NC)=C(/N)N1CCCC1 | > 100 | > 100 | > 100 | > 100 | > 100 | > 100 | > 100 | > 100 | > 100 | > 100 | > 100 |
| CCN(CC)CCN1c2ccccc2Sc2ccc3ccccc3c21 | 19.5 | 27.9 | 22.5 | 10.2 | 22 | 19.1 | 29.4 | 12.3 | 15.7 | 21.5 | 35.1 |
| CC(C)(C)OC(=O)N1C(C2=COc3ccccc3O2)=COc2ccccc21 | > 100 | 53.2 | > 100 | 64.4 | 32.6 | 88.8 | > 100 | 78.2 | 57 | 78 | 64.4 |
| ON=C1CCCCC(=NO)CCCC1 | > 100 | > 100 | > 100 | > 100 | > 100 | > 100 | > 100 | > 100 | > 100 | > 100 | > 100 |
| O=C(CC(=O)c1ccncc1)c1ccccc1 | > 100 | > 100 | > 100 | > 100 | > 100 | > 100 | > 100 | > 100 | > 100 | > 100 | > 100 |
| CCOC(=O)C(SCCO)C(C(=O)OCC)n1ccc(N)nc1=O (configuration not stated) | > 100 | > 100 | > 100 | > 100 | > 100 | > 100 | > 100 | > 100 | > 100 | > 100 | > 100 |
| COc1ccc(C2CCc3nc4nc(N)nc(N)c4cc3C2)cc1 (configuration not stated) | > 100 | 42.3 | 29.4 | > 100 | > 100 | > 100 | 25.3 | > 100 | > 100 | > 100 | > 100 |
| CCCS(=O)(=O)O | > 100 | > 100 | > 100 | > 100 | > 100 | > 100 | > 100 | > 100 | > 100 | > 100 | > 100 |
| Cc1nn2c(N)cc(=O)nc2nc1/C=C/c1ccc(N(C)C)cc1 | > 100 | > 100 | > 100 | > 100 | > 100 | > 100 | > 100 | > 100 | > 100 | > 100 | > 100 |
| O=C1C(NS(=O)(=O)c2ccccc2)=C(n2cnc3ccccc32)C(=O)c2ccccc21 | > 100 | > 100 | > 100 | > 100 | > 100 | > 100 | > 100 | > 100 | > 100 | > 100 | > 100 |
| N#CS/C(C(Cl)=C(Cl)Cl)=C(/Cl)[N+](=O)[O-] | 9.79 | 17.1 | 30 | 6.37 | 17.5 | 19.9 | 31.2 | 27.8 | 1.62 | 3.79 | 18.9 |
| N#CC12COC3(CCCCC3C1(C#N)C#N)OC2=N (configuration not stated) | 27.3 | 25.3 | 45.5 | 23.5 | 33.9 | 71.2 | > 100 | 28.7 | > 100 | 34.1 | 25.3 |
| CCCCCCCCCc1cc(O)c(O)cc1CCCCCCCCC | > 10 | > 10 | > 10 | > 10 | > 10 | > 10 | > 10 | > 10 | > 10 | > 10 | > 10 |
